Measured values: patent US20070184021A1, “Use of caspase inhibitors as a therapeutic agent against radiation-induced injury” (priority 2002, published 2007)
Residues, ends and D or L forms follow the SMILES beside them. *: point of attachment. Cbz = O=C(OCc1ccccc1)*; CH2F = FC*

Experiments:
[1] = tested on: Male C57BL/6 mice; assay: Protection of mice from IR-induced lethality; type: in vivo, mouse
Method: FIG. 9. z-VAD protects mice from IR-induced lethality. Male C57BL/6 mice were given two i.p. injections of vehicle (0.25 ml PBS with 0.2% DMSO) or z-VAD (6 mg/kg) at one hour prior to and 5 h after exposure to a lethal dose of IR (10.5 Gy). The survival of these mice was monitored daily up to 24 days after exposure to IR. n=6 mice/group).
z-VAD protects mice from IR-induced lethality. Finally, the inventors examined if z-VAD acts as a radioprotectant to protect mice from IR-induced death. Male C57BL/6 mice were given two i.p. injections of vehicle (0.25 ml PBS with 0.2% DMSO) or z-VAD (6 mg/kg) at one hour prior to and 5 h after exposure to a lethal dose of IR (10.5 Gy). […] In contrast, 50% mice receiving z-VAD injections remain alive up to today (24 days) after IR.

[2] = tested on: mouse BM cells; assay: Cobblestone area-forming cell (CAFC) assay of irradiated BM cells; type: cell-based; details: 100 μM z-VAD 1 h prior to 4 Gy IR
Method: FIGS. 8A-B. z-VAD partially protects HSC from IR-induced suppression of hematopoietic function. BM cells were pre-incubated with vehicle or 100 μM z-VAD for 1 h and then were exposed to 4 Gy IR. BM cells without IR were used as control. Six hours after the IR, the cells were overlaid on FBMD-1 stromal cell layers. The frequency of CAFC was determined on 7, 14, 21, 28 and 35 days after IR. FIG. 8A—Frequency of CAFC. FIG. 8B—Survival fraction of CAFC as compared to that of control cells. The data presented are mean +/− SEM (n=3 individual mice/groups). Vehicle/IR vs z-VAD/IR, p<0.01 by ANOVA.
z-VAD protects HSC from IR-induced suppression of hematopoietic function. To determine if inhibition of IR-induced HSC apoptosis by z-VAD preserves their hematopoietic function, mouse BM cells were pre-incubated with vehicle (0.2% DMSO) or z-VAD (100 μM) one hour prior to exposure to IR (4 Gy). The hematopoietic function of these cells were analyzed by cobblestone area-forming cell (CAFC) assay (Ploemacher et al., 1989). This in vitro assay provides an estimate of the hematopoietic function of a spectrum of CAFC day-types that correspond to CFU-granulocyte macrophage (CFU-GM) (CAFC day 7), CFU-spleen (CFU-S) day-12 (CAFC day 14), and the primitive HSC with long-term repopulating ability (CAFC day 28-35) (Ploemacher et al., 1989).

[3] = tested on: Lin− Sca1+ c-kit+ cells; assay: Apoptosis assay, annexin V/7-AAD flow cytometry of irradiated Lin- cells, HSC gate; type: cell-based, mouse; details: for IR-induced apoptosis: 4 Gy
Method: (§1) Isolation of lineage negative hematopoietic (Lin) cells: BM mononuclear cells were incubated with biotin-conjugated rat antibodies specific for murine CD5, Mac-1, CD45R/B220, Ter-119 and Gr-1. The labeled mature lymphoid and myeloid cells were removed twice after they were incubated with goat anti-rat IgG paramagnetic beads (Dynal Inc, Lake Success, N.Y.) at a bead:cell ratio of approximately 4:1 and exposed to a magnetic field. The isolated Lin- cells were washed twice with 2% FCS/HBSS and resuspended in complete medium (RPMI1640 medium with 10%FCS, 200 mM L-glutamine and 100 U/ml penicillin and streptomycin) at 1×10^6/ml.
(§2) Ionizing radiation (IR). Aliquots of 2 ml of Lin- cells (1×10^6/ml in complete medium) were placed into a cell culture tube and exposed to 4 Gy IR on a rotating platform in a Mark IV^137Cesium gamma-irradiator (JL Shepherd, Glendale, Calif.) at a dose rate of 1.21 Gy/min.
(§3) Apoptosis assays. Lin^− cells (1×10^6/ml in complete medium) were exposed to 4 Gy IR or non-irradiated (Control). They were incubated in wells of a 24-well plate at 37° C., 5% CO2 and 100% humidity for 6 or 18 h. For z-VAD treatment studies, the cells were pre-incubated with vehicle (0.2% DMSO) or 100 μM z-VAD for 1 h prior to IR exposure, or they were treated with z-VAD immediately before or 30 min, 1 h, 2 h or 4 h after IR exposure. After 6 or 18 h incubation, 0.5 ml cells ([…]) were washed once with 1 ml 0.1% BSA/PBS. The cells were centrifuged for 5 min, 350× g at 4° C. Next, the cells were incubated with anti-CD16/32 at 4° C. for 15 min to block the Fcγ receptors and then stained with Sca-1-PE and c-kit-APC antibodies for 20 min at 4° C. in the dark. The cells were washed twice with 1 ml 0.1% BSA/PBS, centrifuged for 5 min, 350× g at RT. Next, 100 μl 1× binding buffer (10 mM HEPES, pH 7.4, 140 mM NaCl, and 2.5 mM CaCl2) was added to the pellet along with 3 μl Annexin V-FITC (Pharmingen, San Diego, Calif.) and 5 μl 7-AAD (10 μg/ml, from Molecular Probes, Eugene, Oreg.). The cell suspension was gently mixed and incubated for 15 min at room temperature. The cells were diluted in 400 μl 1× binding buffer immediately prior to subjection of FACS analysis. In all experiments, PE and APC isotype controls and FITC and 7-AAD positive controls were included as appropriate. Two or four-color flow cytometric analyses were performed using a FACS Caliber (Becton Dickinson, San Jose, Calif.).

[4] = tested on: Lin− Sca1− c-kit+ cells; assay: Apoptosis assay, annexin V/7-AAD flow cytometry of irradiated Lin- cells, progenitor gate; type: cell-based, mouse
Method: as §1, §2, §3

[5] = 100 μM z-VAD 1 h prior to 4 Gy IR
[6] = 100 μM z-VAD 1 h prior to 4 Gy IR, 6 and 18 h post IR

## COC(=O)C[C@H](NC(=O)[C@H](C)NC(=O)[C@@H](NC(=O)OCc1ccccc1)C(C)C)C(=O)CF [z-VAD, Z-Val-Ala-Asp (OCH3)-Fluoromethylketone, methyl ester] (Cbz-Val-Ala-Asp(OMe)-CH2F)
[1]; z-VAD 6 mg/kg i.p. 1 h prior to and 5 h after 10.5 Gy IR, 24 days after IR, n=6
  mice alive after IR: 50%
[1]; z-VAD 6 mg/kg i.p. twice, 1 h prior to and 5 h after 10.5 Gy IR
  protection from IR-induced death: protected half
[2]; p<0.01
  CAFC frequency and survival fraction vs vehicle-treated cells exposed to IR: significantly increased
[2]; CAFC day 7-35
  survival fraction of CAFC relative to vehicle-treated cells: about 2 fold
[2]; CAFC day 7
  survival fraction of CAFC: 0.211
[2]; CAFC day 14
  survival fraction of CAFC: 0.058
[2]; CAFC day 21
  survival fraction of CAFC: 0.148
[2]; last value of the list, CAFC day 28 or 35 (four values printed for five days)
  survival fraction of CAFC: 0.453
[3]; [5]
  necrotic cell death (7-AAD+ cells): did not lead to an increase
[3]; [6]
  IR-induced reduction of cell numbers: completely prevented
[3]; 100 μM z-VAD 1 h prior to 4 Gy IR, 6 h after IR
  IR-induced apoptosis (annexin V+ and annexin V+/7-AAD+ cells): significantly inhibited
[3]; 100 μM z-VAD 1 h prior to 4 Gy IR, 18 h after IR
  IR-induced apoptosis (annexin V+ and annexin V+/7-AAD+ cells): completely protected
[3]; 100 μM z-VAD given at 4 h post IR
  IR-induced apoptosis: only partially inhibited
[3]; 100 μM z-VAD given prior to IR (-1 h) or up to 2 h post IR
  IR-induced apoptosis: abrogated
[4]; [5]
  necrotic cell death (7-AAD+ cells): did not lead to an increase
[4]; 100 μM z-VAD 1 h prior to 4 Gy IR, 6 and 18 h after IR
  IR-induced apoptosis (annexin V+ and annexin V+/7-AAD+ cells): attenuated
[4]; [6]
  IR-induced reduction of cell numbers: only partially protected
[4]; 100 μM z-VAD 1 h prior to 4 Gy IR, 18 h post IR
  numbers of cells as percentage of un-irradiated control cells: about 29%
[4]; 100 μM z-VAD given -1 h to 4 h relative to 4 Gy IR
  IR-induced apoptosis, compared with the effect in Lin− Sca1+ c-kit+ cells: to a less extent
